Results: patent US20120010205A1, “NOVEL QUINOLINE ESTERS USEFUL FOR TREATING SKIN DISORDERS” (Wyeth LLC, priority 2010, published 2012)
pEC50, pIC50: −log10 of the molar value.

How the values were obtained:
hLXRa = molecular target: T1, hLXRa (Homo sapiens, UniProt Q13133); assay: hLXRa binding
T1 sequence (Q13133 1-447): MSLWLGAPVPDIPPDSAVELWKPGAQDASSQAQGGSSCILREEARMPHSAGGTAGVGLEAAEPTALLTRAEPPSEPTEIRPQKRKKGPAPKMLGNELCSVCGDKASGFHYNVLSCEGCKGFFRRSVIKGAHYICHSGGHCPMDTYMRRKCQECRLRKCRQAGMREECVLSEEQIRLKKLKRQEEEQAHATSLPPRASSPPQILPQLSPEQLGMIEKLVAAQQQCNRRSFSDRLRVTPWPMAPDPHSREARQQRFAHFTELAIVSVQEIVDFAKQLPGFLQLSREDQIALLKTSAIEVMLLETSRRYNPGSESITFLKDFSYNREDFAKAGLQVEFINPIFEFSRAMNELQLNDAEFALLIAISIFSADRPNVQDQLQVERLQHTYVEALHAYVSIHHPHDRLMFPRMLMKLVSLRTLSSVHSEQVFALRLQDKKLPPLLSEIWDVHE

ABCG1 [1] = assay: Gene regulation by LXR: ABCG1, human foreskin fibroblasts (serum-free); format: cell-based
ABCG1 [2] = assay: Gene regulation by LXR: ABCG1, KERTr (serum-free); format: cell-based
human LXRβ = molecular target: T2, human LXRβ (Homo sapiens, UniProt P55055); assay: Ligand-binding test procedure for human LXRβ (3H T0901317 tracer, flash plates); settings: read-out: hLXRb binding IC50
T2 construct: made in house; host or cells: E. coli
T2 sequence (P55055 1-460): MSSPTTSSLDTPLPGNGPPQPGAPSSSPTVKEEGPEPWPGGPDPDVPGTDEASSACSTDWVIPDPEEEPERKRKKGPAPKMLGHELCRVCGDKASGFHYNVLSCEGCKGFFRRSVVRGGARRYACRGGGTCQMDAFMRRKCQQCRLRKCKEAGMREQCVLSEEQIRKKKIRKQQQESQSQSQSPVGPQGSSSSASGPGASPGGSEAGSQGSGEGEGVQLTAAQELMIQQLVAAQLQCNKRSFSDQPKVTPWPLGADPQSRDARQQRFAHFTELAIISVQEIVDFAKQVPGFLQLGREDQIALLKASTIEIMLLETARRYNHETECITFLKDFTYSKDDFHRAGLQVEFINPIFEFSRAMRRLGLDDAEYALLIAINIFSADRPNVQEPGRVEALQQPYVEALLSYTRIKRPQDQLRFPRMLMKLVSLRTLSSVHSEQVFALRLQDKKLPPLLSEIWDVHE
Method: LIGAND-BINDING TEST PROCEDURE FOR HUMAN LXRβ.
Buffer: 100 mM KCl, 100 mM TRIS (pH 7.4 at +4° C.), 8.6% glycerol, 0.1 mM PMSF*, 2 mM MTG*, 0.2% CHAPS (* not used in wash buffer)
Receptor source: E. coli extracted from cells expressing biotinylated hLXRβ. Extract was made in a similar buffer as above, but with 50 mM TRIS.
Washed streptavidin and coated flash plates with wash buffer. Diluted receptor extract to give Bmax˜4000 cpm and add to the wells. Wrapped the plates in aluminum foil and stored them at +4° C. overnight.
Made a dilution series in DMSO of the test ligands. Made a 5 nM solution of the radioactive tracer in buffer. Mixed 250 μL diluted tracer with 5 μL of the test ligand from each concentration of the dilution series. Washed the receptor-coated flash plates. Added 200 μL per well of the ligand/radiolabel mixture to the receptor-coated flash plates. Wrapped the plates in aluminum foil and incubate at +4° C. over night.
Aspirated wells, and washed the flashed plates. Sealed the plate. Measured the remaining radioactivity in the plate.

Row | SMILES | pIC50 (hLXRa) | pEC50 (ABCG1 [2]) | pIC50 (human LXRβ) | pEC50 (ABCG1 [1]; Fibroblast) | pEC50 (ABCG1 [1])
1 | CC(C)c1cnc2c(C(F)(F)F)cccc2c1-c1cccc(OC(=O)c2ccc(S(C)(=O)=O)cc2)c1 [Example 8, 3-[3-isopropyl-8-(trifluoromethyl)quinolin-4-yl]phenyl 4-(methylsulfonyl)benzoate] | 7.27 | 8.72 | 7.90 | 7.42 | –
2 | Cc1ccc(S(=O)(=O)N(C)C)cc1C(=O)Oc1cccc(-c2c(C)cnc3c(C(F)(F)F)cccc23)c1 [Example 30, 3-[3-methyl-8-(trifluoromethyl)quinolin-4-yl]phenyl 5-(dimethylsulfamoyl)-2-methylbenzoate] | 6.35 | 6.86 | 6.63 | 6.79 | –
3 | CC(C)c1cnc2c(Cl)cccc2c1-c1cccc(OC(=O)c2cccc(S(=O)(=O)N3CCOCC3)c2)c1 [Example 37, 3-(8-chloro-3-isopropylauinolin-4-yl)phenyl 3-(morpholin-4-ylsulfonyl)benzoate] | 6.69 | 8.62 | 7.16 | – | 7.22
4 | Cc1ccc(S(C)(=O)=O)cc1C(=O)Oc1cccc(-c2c(C)cnc3c(C(F)(F)F)cccc23)c1 [Example 27, 3-[3-methyl-8-(trifluormethyl)quinolin-4-yl]phenyl 2-methyl-5-(methylsulfonyl)benzoate] | 6.85 | 7.00 | 7.46 | – | 7.60
5 | Cc1cnc2c(C(F)(F)F)cccc2c1-c1cccc(OC(=O)c2ccc(S(C)(=O)=O)cc2)c1 [Example 29, 3-[3-methyl-8-(trifluoromethyl)quinolin-4-yl]phenyl 4-(methylsulfonyl)benzoate] | 6.81 | 6.78 | 7.47 | 6.60 | –
6 | Cc1cnc2c(C(F)(F)F)cccc2c1-c1cccc(C(=O)Oc2cccc(S(C)(=O)=O)c2)c1 [Example 12] | 6.26 | – | 6.81 | – | –
7 | Cc1cnc2c(C(F)(F)F)cccc2c1-c1cccc(OC(=O)c2cc(S(C)(=O)=O)ccc2Cl)c1 [Example 28, 3-[3-methyl-8-(trifluoromethyl)quinolin-4-yl]phenyl 2-chloro-5-(methylsulfonyl)benzoate] | 6.98 | 6.67 | 7.72 | 7.17 | –
8 | CS(=O)(=O)c1cccc(C(=O)Oc2cccc(-c3ccnc4c(C(F)(F)F)cccc34)c2)c1 [Example 21, 3-[8-(trifluoromethyl)quinolin-4-yl]phenyl 3-(methylsulfonyl)benzoate] | 6.92 | 6.42 | 7.70 | 6.20 | –
9 | CC(C)c1cnc2c(Cl)cccc2c1-c1cccc(OC(=O)c2ccccc2S(C)(=O)=O)c1 [Example 4, 3-(8-chloro-3-isopropylquinolin-4-yl)phenyl 2-(methylsulfonyl)benzoate] | < 6.00 | – | < 6.00 | – | –
10 | CS(=O)(=O)c1cccc(C(=O)Oc2ccc(Cl)c(-c3ccnc4c(C(F)(F)F)cccc34)c2)c1 [Example 18, 4-chloro-3-[8-(trifluoromethyl)quinolin-4-yl]phenyl-3-(methylsulfonyl)benzoate] | 6.91 | – | 7.86 | – | –
11 | CS(=O)(=O)c1cccc(C(=O)Oc2cccc(-c3c(C#N)cnc4c(C(F)(F)F)cccc34)c2)c1 [Example 24, 3-[3-cyano-8-(trifluoromethyl)quinolin-4-yl]phenyl 3-(methylsulfonyl)benzoate] | 7.05 | – | 7.48 | – | –
12 | CC(C)c1cnc2c(C(F)(F)F)cccc2c1-c1cccc(OC(=O)c2ccccc2S(C)(=O)=O)c1 [Example 9, 3-[3-isopropyl-8-(trifluoromethyl)quinolin-4-yl]phenyl 2-(methylsulfonyl)benzoate] | 6.59 | – | 6.95 | – | –

Stronger by pIC50 (hLXRa), values ahead:

Row | pIC50 (hLXRa) | pEC50 (ABCG1 [2]) | pIC50 (human LXRβ) | SMILES | pEC50 (ABCG1 [1]; Fibroblast) | pEC50 (ABCG1 [1])
13 | 8.05 | – | 8.47 | CC(C)c1cnc2c(Cl)cccc2c1-c1cccc(OC(=O)c2cc(S(C)(=O)=O)ccc2Cl)c1 [Example 13, 3-(8-chloro-3-isopropylquinolin-4-yl)phenyl 2-chloro-5-(methylsulfonyl)benzoate] | – | –
14 | 7.82 | 8.08 | 8.33 | CC(C)c1cnc2c(Cl)cccc2c1-c1cccc(OC(=O)c2cccc(S(=O)(=O)N(C)C)c2)c1 [Example 33, 3-(8-chloro-3-isopropylauinolin-4-yl)phenyl 3-(dimethylsulfamoyl)benzoate] | 7.26 | –
15 | 8.54 | 8.35 | 8.70 | CCCc1cnc2c(C(F)(F)F)cccc2c1-c1cccc(OC(=O)c2cccc(S(C)(=O)=O)c2)c1 [Example 20, 3-[3-propyl-8-(trifluoromethyl)quinolin-4-yl]phenyl 3-(methylsulfonyl)benzoate] | 7.96 | –
16 | 8.06 | 9.28 | 8.25 | CC(C)c1cnc2c(Cl)cccc2c1-c1cccc(OC(=O)c2cccc(CS(C)(=O)=O)c2)c1 [Example 35, 3-(8-chloro-3-isopropylauinolin-4-yl)phenyl 3-[(methylsulfonyl)methyl]benzoate] | – | 7.96
17 | 7.88 | 7.14 | 8.46 | Cc1cnc2c(C(F)(F)F)cccc2c1-c1cccc(OC(=O)c2cccc(S(C)(=O)=O)c2)c1 [Example 11] | 6.98 | –
18 | 8.46 | 8.28 | 8.77 | CC(C)c1cnc2c(C(F)(F)F)cccc2c1-c1cccc(OC(=O)c2cccc(S(C)(=O)=O)c2)c1 [Example 15, 3-[3-isopropyl-8-(trifluoromethyl)quinolin-4-yl]phenyl 3-(methylsulfonyl)benzoate] | 7.39 | –
19 | 8.04 | 8.48 | 8.52 | Cc1ccc(S(C)(=O)=O)cc1C(=O)Oc1cccc(-c2c(C(C)C)cnc3c(C(F)(F)F)cccc23)c1 [Example 7, 3-[3-isopropyl-8-(trifluoromethyl)quinolin-4-yl]phenyl-2-methyl-5-(methylsulfonyl)benzoate] | 7.64 | –
20 | 8.10 | 8.54 | 8.52 | CCS(=O)(=O)c1cccc(C(=O)Oc2cccc(-c3c(-c4ccccc4)cnc4c(Cl)cccc34)c2)c1 [Example 32, 3-(8-chloro-3-phenylquinolin-4-yl)phenyl 3-(ethylsulfonyl)benzoate] | 8.17 | –
21 | 8.40 | 7.90 | 8.66 | CCc1cnc2c(C(F)(F)F)cccc2c1-c1cccc(OC(=O)c2cccc(S(C)(=O)=O)c2)c1 [Example 19, 3-[3-ethyl-8-(trifluoromethyl)quinolin-4-yl]phenyl 3-(methylsulfonyl)benzoate] | 7.44 | –
22 | 7.77 | – | 8.39 | CC(C)c1cnc2c(C(F)(F)F)cccc2c1-c1cccc(OC(=O)c2cc(S(C)(=O)=O)ccc2Cl)c1 [Example 14, 3-[3-isopropyl-8-(trifluoromethyl)quinolin-4-yl]phenyl-2-chloro-5-(methylsulfonyl)benzoate] | – | –
23 | 7.77 | – | 8.43 | Cc1cnc2c(Cl)cccc2c1-c1cccc(OC(=O)c2cccc(S(C)(=O)=O)c2)c1 [Example 17, 3-(8-chloro-3-methylquinolin-4-yl)phenyl 3-(methylsulfonyl) benzoate] | – | –
24 | 8.36 | – | 8.66 | CC(C)c1cnc2c(Cl)cccc2c1-c1cccc(OC(=O)c2cccc(S(C)(=O)=O)c2)c1 [Example 16, 3-[8-chloro-3-(1-methylethyl)quinolin-4-yl]phenyl 3-(methylsulfonyl)benzoate] | – | –
